The source of these data is article PMC12090182, “Repurposing of the RIPK1-Selective Benzo[1,4]oxazepin-4-one Scaffold for the Development of a Type III LIMK1/2 Inhibitor” (ACS Chemical Biology, 2025).

Where “and” joins values, the source holds several entries; their conditions need not be identical. Equal entries are not always repeated. Where two headings read alike, the source gives them in different places.

In one test the target is CSNK2A2 (Homo sapiens, UniProt P19784). Kind of test: DSF selectivity screening. The settings on record: 10 μM compound. The format is binding. How it is done: The assay was performed as previously described.[29],[35] Briefly, recombinant protein kinase domains at a concentration of 2 μM were mixed with a 10 μM compound in a buffer containing 20 mM HEPES, pH 7.5, and 500 mM NaCl. SYPRO Orange (5000×, Invitrogen) was added as a fluorescence probe (1 μL per mL). Subsequently, temperature-dependent protein unfolding profiles were measured using a QuantStudio 5 real-time PCR machine (Thermo Fisher). Excitation and emission filters were set to 465 and 590 nm, respectively. The temperature was raised with a step rate of 3 °C per minute. Data points were analyzed with internal software (Thermal Shift Software version 1.4, Thermo Fisher) using the Boltzmann equation to determine the inflection point of the transition curve (Table S4).
CSNK2A2, sequence (P19784 1-334): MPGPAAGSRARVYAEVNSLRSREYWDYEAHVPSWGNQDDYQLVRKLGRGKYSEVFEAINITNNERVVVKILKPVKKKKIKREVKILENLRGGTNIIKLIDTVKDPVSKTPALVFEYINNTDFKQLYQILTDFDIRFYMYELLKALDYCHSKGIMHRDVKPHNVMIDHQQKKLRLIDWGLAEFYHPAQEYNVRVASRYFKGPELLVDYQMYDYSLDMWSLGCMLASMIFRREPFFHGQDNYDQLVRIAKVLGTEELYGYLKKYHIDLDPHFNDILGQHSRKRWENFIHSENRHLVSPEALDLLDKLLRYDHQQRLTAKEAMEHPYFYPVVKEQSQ

The next test deals with BRD4 (Homo sapiens, UniProt O60885). Kind of test: DSF selectivity screening. The format is binding. The settings on record: 10 μM compound.
The target of another test is T1, RIPK1 (Homo sapiens, UniProt Q13546).
T1 construct: full-length LIMK1/2, RIPK1, BTK, and LRRK2 cloned in a frame in a NanoLuc-vector (Promega); host or cells: HEK293T
T1 sequence (Q13546 1-671): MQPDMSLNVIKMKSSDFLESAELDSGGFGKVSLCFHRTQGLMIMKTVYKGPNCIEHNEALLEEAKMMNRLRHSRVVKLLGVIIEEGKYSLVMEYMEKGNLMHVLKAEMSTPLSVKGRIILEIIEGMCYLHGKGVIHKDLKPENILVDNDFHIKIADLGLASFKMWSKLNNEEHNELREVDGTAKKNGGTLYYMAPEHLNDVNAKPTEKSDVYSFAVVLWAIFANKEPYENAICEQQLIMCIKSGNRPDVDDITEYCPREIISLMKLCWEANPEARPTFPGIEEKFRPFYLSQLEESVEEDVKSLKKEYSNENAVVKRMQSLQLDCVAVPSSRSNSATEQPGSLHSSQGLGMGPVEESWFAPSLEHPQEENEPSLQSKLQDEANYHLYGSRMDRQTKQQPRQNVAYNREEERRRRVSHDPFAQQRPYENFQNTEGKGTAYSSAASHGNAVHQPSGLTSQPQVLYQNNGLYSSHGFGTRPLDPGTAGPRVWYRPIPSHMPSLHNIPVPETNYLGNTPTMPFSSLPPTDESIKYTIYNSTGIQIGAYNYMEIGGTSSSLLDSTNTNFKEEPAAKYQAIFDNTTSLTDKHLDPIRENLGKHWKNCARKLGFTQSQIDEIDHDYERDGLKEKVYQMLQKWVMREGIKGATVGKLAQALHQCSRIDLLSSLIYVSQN
The test is described as follows: NanoBRET cellular target engagement. It counts as cell-based. The settings on record: RIPK1, HEK293T cells. How it is done:
The assay was performed as described previously.[31],[32] In brief, full-length LIMK1/2, RIPK1, BTK, and LRRK2 cloned in a frame in a NanoLuc-vector (Promega) were transfected into HEK293T cells (ATCC CRL-1573) using FuGENE HD (Promega, E2312), and proteins were allowed to express for 20 h. The serially diluted inhibitor and NanoBRET Kinase Tracer (Promega) used at the previously determined Tracer KD,app (Table S1) were pipetted into white 384-well plates (Greiner 781 207) using an ECHO 550 acoustic dispenser (Labcyte). The corresponding transfected cells were added and reseeded at a density of 2 × 10^5 cells/mL after trypsinization and resuspension in Opti-MEM without phenol red (Life Technologies). The system was allowed to equilibrate for 2 h at 37 °C and 5% CO2 prior to BRET measurements. To measure BRET, a NanoBRET Nano-Glo substrate and an extracellular NanoLuc inhibitor (Promega, N2160) were added as per the manufacturer's protocol, and filtered luminescence was measured on a PHERAstar plate reader (BMG Labtech) equipped with a luminescence filter pair (a 450 nm BP filter (donor) and a 610 nm LP filter (acceptor)). Competitive displacement data were then plotted using GraphPad Prism 10 software using a normalized three-parameter curve fit with the following equation: Y = 100/( [drawing 1] ).

The subject of test [1] is cofilin phosphorylation (LIMK1/2 substrate). The test is described as follows: Western blot of cofilin phosphorylation in LN-229 cells. The format is cell-based, human. The following applies: 6 h. How it is done: LN-229, a human glioblastoma cell line, was cultured until passage 17 in Dulbecco’s modified Eagle’s medium (DMEM) with GlutaMAX, 10% fetal bovine serum (FBS), and 1% penicillin/streptomycin. Cells were maintained in an incubator with 5% CO2 at 37 °C. For the treatment, 3 × 10^5 cells were plated and treated with the tested compounds at the indicated concentrations and DMSO as the control for 6 h. The cells were then lysed using RIPA buffer (50 mM Tris HCl pH 7.4, 150 mM NaCl, 1% Triton X-100, 1% NaDOC, 0.1% SDS, and 1 mM EDTA), freshly supplemented with protease and phosphatase inhibitor cocktails (Sigma-Aldrich, Darmstadt, Germany). After a 1 h incubation on ice, the lysates were centrifuged for 30 min at 250g, and the protein-containing supernatant was collected. The protein concentrations were determined using the protein assay dye reagent concentrate (Bradford, Bio-Rad, Hercules, CA, USA) and prediluted protein assay standard bovine serum albumin (BSA) set (Thermo Fisher Scientific, Darmstadt, Germany). Then, equal amounts of protein were mixed with a Roti-Load 1 dye (Carl Roth, Karlsruhe, Germany) and 4× Laemmli buffer (Bio-Rad, Hercules, CA, USA), denatured at 95 °C, and run on NuPAGE 4–12% bis-Tris gels (Thermo Fisher Scientific, Darmstadt, Germany). Proteins were blotted on methanol-activated PVDF transfer membranes (Thermo Fisher Scientific, Darmstadt, Germany) using the wet transfer method with transfer buffer (Thermo Fisher Scientific, Darmstadt, Germany) and 20% methanol. Subsequently, the membranes were blocked with 5% milk or 3% BSA in 0.1% TBS-T for 1 h at RT and incubated overnight at 4 °C with primary antibodies: GAPDH (catalog no. 2118, Cell Signaling Technology, MA, USA, 1:1000 dilution), LIMK1 (catalog no. 3842, Cell Signaling Technology, 1:1000 dilution), LIMK2 (catalog no. 3845, 1:500 dilution), p-cofilin (catalog no. 3313, Cell Signaling Technology, 1:1000 dilution), cofilin (catalog no. 5175, Cell Signaling Technology, 1:1000 dilution). […]

A further test concerns the target KIT(A829P) (Homo sapiens, UniProt P10721, A829P). Kind of test: biochemical. The format is binding. The settings on record: compound concentration 100 nM; Entrez KIT; read-out: Percent Control.

KIT(A829P), sequence (P10721 26-976 A829P): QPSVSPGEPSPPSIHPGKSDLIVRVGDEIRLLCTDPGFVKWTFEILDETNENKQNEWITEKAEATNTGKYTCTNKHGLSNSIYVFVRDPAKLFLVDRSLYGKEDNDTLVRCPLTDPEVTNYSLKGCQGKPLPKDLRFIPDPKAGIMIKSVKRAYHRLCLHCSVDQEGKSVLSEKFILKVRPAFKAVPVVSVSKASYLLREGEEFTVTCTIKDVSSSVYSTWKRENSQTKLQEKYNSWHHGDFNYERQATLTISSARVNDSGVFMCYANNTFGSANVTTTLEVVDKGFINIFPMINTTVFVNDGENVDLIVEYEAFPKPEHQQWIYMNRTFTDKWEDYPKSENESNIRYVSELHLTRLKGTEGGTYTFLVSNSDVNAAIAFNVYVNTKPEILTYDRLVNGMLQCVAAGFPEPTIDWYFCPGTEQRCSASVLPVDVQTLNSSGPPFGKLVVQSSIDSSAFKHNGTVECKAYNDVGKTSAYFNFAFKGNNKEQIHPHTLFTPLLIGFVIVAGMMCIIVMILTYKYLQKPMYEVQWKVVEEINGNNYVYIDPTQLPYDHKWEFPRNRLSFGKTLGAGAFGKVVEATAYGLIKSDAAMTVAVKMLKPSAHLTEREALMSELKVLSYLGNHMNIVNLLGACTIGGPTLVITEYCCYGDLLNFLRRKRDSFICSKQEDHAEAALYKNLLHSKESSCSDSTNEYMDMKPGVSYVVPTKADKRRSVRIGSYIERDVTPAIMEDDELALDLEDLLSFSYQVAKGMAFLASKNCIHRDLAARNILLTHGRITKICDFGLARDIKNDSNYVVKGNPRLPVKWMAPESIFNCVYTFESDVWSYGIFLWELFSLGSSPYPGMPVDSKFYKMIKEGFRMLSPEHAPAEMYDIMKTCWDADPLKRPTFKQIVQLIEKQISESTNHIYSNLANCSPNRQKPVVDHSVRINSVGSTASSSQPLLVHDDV

Usually ΔTm stands for the change in melting temperature against a reference sample. For orientation: EC50 means the concentration that produces a half-maximal response. Turning to `CN1C(=O)[C@@H](N2CCc3c(nn(Cc4ccccc4)c3C(N)=O)C2=O)COc2cc(Cl)ccc21` [Compound 10, (S)-2-benzyl-6-(8-chloro-5-methyl-4-oxo-2,3,4,5-tetrahydrobenzo[b][1,4]oxazepin-3-yl)-7-oxo-4,5,6,7-tetrahydro-2H-pyrazolo[3,4-c]pyridine-3-carboxamide], the values for the shift in melting temperature (ΔTm) at 10 µM on CSNK2A2 and on BRD4 were 2.3 °C and -1.4 °C, respectively. Also, the EC50 on RIPK1 (read-out: EC50 (NanoBRET)) was 6.3 nM and 7.8 nM; on RIPK1 (read-out: EC50 (NanoBRET), Figure 4C), 7.85 nM. The “cofilin phosphorylation (Western blot)” value is “weaker levels of phosphorylation” in test [1] (100 nM); “almost completely abrogated” in test [1] (1 μM and higher concentrations). Also, at KIT(A829P), the remaining activity at 0.1 µM came out at 86%.
Take `CN1C(=O)[C@@H](N2CCc3c(C(N)=O)nn(Cc4ccccc4)c3C2=O)COc2ccccc21` [Compound 11]: the thermal shift (ΔTm) at 10 µM at CSNK2A2 is 2.2 °C. The concentration giving a half-maximal response (EC50) at RIPK1 (read-out: EC50 (NanoBRET)) was determined as 3500 nM. For the same molecule, the “cofilin phosphorylation (Western blot)” value in test [1] (5 μM) is “no effect”.
